In US20070078124A1, “1-Aza-2-oxa-dibenzo(e,h)azulenes and their use for the treatment of central nervous system diseases and disorders” (PLIVA-ISTRAZIVACKI INSTITUT D.O.O., priority 2003, published 2007):

Key:
5-HT2A receptor = biological target: T1, 5-HT2A receptor (Homo sapiens, UniProt P28223); test: radioligand ([3H]-ketanserin) competitive binding assay for 5-HT2A receptor; conditions: for IC50: human cortex or recombinant 5-HT2A receptor expressed in CHO-K1, read-out: binding affinity to 5-HT2A serotonin receptor expressed as IC50 value; for Ki: human cortex or recombinant 5-HT2A receptor expressed in CHO-K1, read-out: binding affinity to 5-HT2A serotonin receptor, Ki value
T1 construct: expressed in transfected cells; host or cells: CHO-K1 (or COS-7)
Experimental: (§1) The effect of the compounds of the present invention on the neurochemical steady state was determined by in vitro investigations such as a radionuclide-marked radioligand binding assay for 5-HT2A (Bonhaus D. W. Br. J. Pharmacol. 1995, 115:622; Saucier C. J. Neurochem. 1997, 68:1998) and 5-HT2C receptors (Wolf W. A. J. Neurochem. 1997, 69:1449), in vitro binding assay for σ1 receptor (Thomson W. and Donn R. Arthritis Res. 2002, 4: 302-306) and by in vivo investigations in a tail suspension test (Vogel H. G. and Vogel W. H. Drug Discovery and Evaluation Pharmacological Assays, Springer 1997, 304), in amphethamine-induced hyperlocomotion in mice (Millan M. J. et al, 1998 J. Pharmacol. Exp. Ther. 287: 167-186), in a forced swim test in mice (Porsolt R. D. et al. Arch. Int. Pharmacodyn. 1977, 229:327-336), in meta-chlorophenyl piperazine (m-CPP) test on rats (Drug Dev. Res. 1989, 18:119-144), and in apomorphine, tryptamine, norepinephrine (ATN) test in rats (Arch. Int. Pharmacodyn. 1977, 227:238-253).
(§2) In Vitro Method for Determining Affinity for Binding to 5-HT2A and 5-HT2C Receptors
(§3) A small concentration of a radioligand having a great affinity for binding to a receptor was incubated with a tissue sample enriched with a certain receptor (1-5 mg of tissue) in a buffered medium (0.2-5 mL). Recombinant human HT2A and HT2C receptors were expressed in CHO-K1 or COS-7 cells and were also used for competitive binding. During incubation the radioligand bound to the receptor. When a binding balance was achieved, the receptors to which the radioligand was bound were separated from those to which said ligand was not bound, and the radioactivity of the receptor/radioligand complex was measured. The interaction of the tested compounds with receptors was tested in competitive binding experiments. Various concentrations of tested compounds were added to the incubation mixture containing a prepared tissue enriched with corresponding receptors and the radioligand. The radioligand binding was inhibited by the test compounds proportionally to the affinity of a certain compound for the receptor and to the concentration of the compound.
The radioligand used for the determination of binding to 5-HT2A receptor was [^3H]-ketanserin and the tissue used was human cortex or recombinant 5-HT2A receptor expressed in CHO-K1.

5-HT2C receptor = biological target: T2, 5-HT2C receptor (Homo sapiens, UniProt P28335); test: radioligand ([3H]mesulergine) competitive binding assay for 5-HT2C receptor; conditions: choroid plexus or recombinant 5-HT2C receptor expressed in CHO-K1 cells; for IC50: read-out: binding affinity to 5-HT2C serotonin receptor expressed as IC50 value; for Ki: read-out: binding affinity to 5-HT2C serotonin receptor, Ki value
T2 construct: expressed in transfected cells; host or cells: CHO-K1 (or COS-7)
T2 sequence (P28335 33-458): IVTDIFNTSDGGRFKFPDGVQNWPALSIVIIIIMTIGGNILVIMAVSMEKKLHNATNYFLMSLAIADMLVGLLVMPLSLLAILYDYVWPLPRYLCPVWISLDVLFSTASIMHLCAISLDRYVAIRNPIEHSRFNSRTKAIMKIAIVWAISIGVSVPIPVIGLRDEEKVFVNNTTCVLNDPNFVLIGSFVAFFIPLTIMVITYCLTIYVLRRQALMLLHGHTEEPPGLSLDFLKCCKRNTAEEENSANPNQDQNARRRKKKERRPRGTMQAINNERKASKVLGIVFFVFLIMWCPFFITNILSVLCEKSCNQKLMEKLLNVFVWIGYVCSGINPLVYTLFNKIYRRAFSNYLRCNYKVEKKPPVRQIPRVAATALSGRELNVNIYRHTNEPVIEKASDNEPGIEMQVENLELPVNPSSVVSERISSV
Experimental: as §1, §2, §3
The radioligand used for the determination of binding to 5-HT2C receptor was [^3H]mesulergine and the tissue used was choroid plexus or recombinant 5-HT2C receptor expressed in CHO-K1 cells.

T1 sequence (P28223 whole entry): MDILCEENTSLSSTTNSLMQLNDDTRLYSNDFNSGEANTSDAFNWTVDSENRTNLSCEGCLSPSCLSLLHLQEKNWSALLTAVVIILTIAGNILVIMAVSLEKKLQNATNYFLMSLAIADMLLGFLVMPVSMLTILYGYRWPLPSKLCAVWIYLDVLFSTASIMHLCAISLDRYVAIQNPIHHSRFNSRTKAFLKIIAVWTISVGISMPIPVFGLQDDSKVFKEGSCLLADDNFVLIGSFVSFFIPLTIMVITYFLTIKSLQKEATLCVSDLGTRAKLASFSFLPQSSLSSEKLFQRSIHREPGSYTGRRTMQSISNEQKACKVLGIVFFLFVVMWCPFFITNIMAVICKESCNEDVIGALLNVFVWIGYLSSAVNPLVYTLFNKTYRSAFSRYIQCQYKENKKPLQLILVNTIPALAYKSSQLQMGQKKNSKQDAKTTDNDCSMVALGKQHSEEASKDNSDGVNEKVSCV

Q: What does the source list for `Cc1onc2c1-c1ccccc1Sc1ccccc1-2` [Compound 1, 3-Methyl-2-oxa-8-thia-1-aza-dibenzo[e,h]azulene]?
A: IC50 (5-HT2A receptor): < 200 nM; Ki (5-HT2A receptor): < 100 nM; IC50 (5-HT2C receptor): < 200 nM; Ki (5-HT2C receptor): < 100 nM

Q: What does the source list for `CN(C)CCCOCc1onc2c1-c1ccccc1Sc1ccccc1-2` [Compound 7, Dimethyl-[3-(2-oxa-8-thia-1-aza-dibenzo[e,h]azulen-3-ylmethoxy)-propyl]-amine]?
A: IC50 (5-HT2A receptor): < 200 nM; Ki (5-HT2A receptor): < 100 nM; IC50 (5-HT2C receptor): < 200 nM; Ki (5-HT2C receptor): < 100 nM
